How the values were obtained:
Format in all cases: biochemical
[1] = biological target: T1, MMP-3 (Homo sapiens, UniProt P08254); assay: Automated MMP Profiling Assay, MMP-3 fluorogenic; conditions: for IC50: 96-well automated, P218
T1 construct: Truncated Prostromelysin-257 was expressed in a soluble form in E.coli; made in house; host or cells: E. coli
From the text: This assay with each invention compound was run with the three enzymes MMP-3, MMP-9 and MMP-2 in parallel as adapted for a 96-well microtitre plate using a Hamilton A® workstation.

[2] = biological target: T2, MMP-9 (Homo sapiens, UniProt P14780); assay: Thiopeptilide MMP-9 Inhibition Assay; conditions: pH 6.5; x (n) = average of n determinations; read-out: MMP-9: Thiopep. IC50
T2 construct: from tissue; host or cells: human polymorphonuclear leukocytes (PMN) from whole blood (New York Blood Center), PMA-stimulated supernatant

[3] = biological target: T3, MMP-2 (Homo sapiens, UniProt P08253); assay: Automated MMP Profiling Assay, MMP-2 fluorogenic; conditions: for IC50: 96-well automated, P218, read-out: MMP-2 Fluorogenic IC50 (profiling)
T3 sequence (P08253 110-660): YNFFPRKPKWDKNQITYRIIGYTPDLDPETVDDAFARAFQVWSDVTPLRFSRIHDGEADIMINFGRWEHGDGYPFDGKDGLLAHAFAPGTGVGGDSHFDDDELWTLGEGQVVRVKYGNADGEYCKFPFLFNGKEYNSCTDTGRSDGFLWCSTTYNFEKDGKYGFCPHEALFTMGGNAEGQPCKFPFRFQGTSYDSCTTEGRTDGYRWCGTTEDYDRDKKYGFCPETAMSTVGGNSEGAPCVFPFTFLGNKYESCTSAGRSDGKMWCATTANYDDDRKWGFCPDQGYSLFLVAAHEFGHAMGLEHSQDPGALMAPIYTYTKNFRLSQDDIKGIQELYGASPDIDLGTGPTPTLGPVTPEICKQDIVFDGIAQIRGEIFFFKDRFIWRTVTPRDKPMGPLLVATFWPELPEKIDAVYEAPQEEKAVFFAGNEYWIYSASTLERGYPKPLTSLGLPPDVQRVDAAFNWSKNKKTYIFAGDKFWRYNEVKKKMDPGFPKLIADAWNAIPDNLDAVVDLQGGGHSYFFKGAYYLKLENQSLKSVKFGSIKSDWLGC

[4] = biological target: T2, MMP-9; assay: Automated MMP Profiling Assay, MMP-9 fluorogenic; conditions: for IC50: 96-well automated, P218

T2 sequence (P14780 107-707 limits assumed): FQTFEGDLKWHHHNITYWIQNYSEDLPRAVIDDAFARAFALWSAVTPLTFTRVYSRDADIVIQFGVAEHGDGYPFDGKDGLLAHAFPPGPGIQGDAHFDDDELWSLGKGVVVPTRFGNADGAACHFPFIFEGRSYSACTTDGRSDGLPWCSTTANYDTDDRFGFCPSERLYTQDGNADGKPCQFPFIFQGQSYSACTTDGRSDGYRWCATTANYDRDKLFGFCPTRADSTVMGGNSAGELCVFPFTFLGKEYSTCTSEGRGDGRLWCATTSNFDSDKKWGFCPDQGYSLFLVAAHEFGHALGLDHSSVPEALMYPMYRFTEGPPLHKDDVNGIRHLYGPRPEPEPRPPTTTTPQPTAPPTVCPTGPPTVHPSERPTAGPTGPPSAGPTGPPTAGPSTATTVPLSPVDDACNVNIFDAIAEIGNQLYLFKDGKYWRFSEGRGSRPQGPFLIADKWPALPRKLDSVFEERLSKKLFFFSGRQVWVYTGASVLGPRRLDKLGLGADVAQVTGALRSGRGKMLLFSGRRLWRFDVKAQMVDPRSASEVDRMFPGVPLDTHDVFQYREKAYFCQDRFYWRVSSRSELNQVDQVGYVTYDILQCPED
T1 sequence (P08254 100-274 limits assumed): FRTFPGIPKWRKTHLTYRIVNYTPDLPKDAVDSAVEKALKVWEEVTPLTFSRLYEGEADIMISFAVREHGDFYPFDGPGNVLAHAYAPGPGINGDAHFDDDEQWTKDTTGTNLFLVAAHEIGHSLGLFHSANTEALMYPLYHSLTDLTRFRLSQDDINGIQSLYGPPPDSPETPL

SMILES | IC50 [1] | IC50 [2] | IC50 [3] | IC50 [4] | inhibition at 5 µM [1] | inhibition at 5 µM [4] | inhibition at 5 µM ([3]; at 5 μM)
O=C(O)[C@@H]1[C@@H](Sc2ccccc2)CC[C@H]1C(=O)c1ccc(-c2ccc(Cl)cc2)cc1 [Example 297, (1R,2S,5R)-trans-5-[4-(4-chlorophenyl)phenylcarbonyl]-trans-2-phenylthiocyclopentanecarboxylic acid] | 5750 nM | 640 nM | 2070 nM | 2370 nM |  |  | 
Cc1ccc2c(c1)C(=O)N(CCC(CC(=O)c1ccc(-c3ccc(Cl)cc3)cc1)C(=O)O)C2=O (stereo not drawn) [Example 416, 2H-Isoindole-2-butanoic acid, α[2-(4'-chloro[1,1'-biphenyl]-4-yl)-2-oxoethyl]-1,3-dihydro-5-methyl-1,3-dioxo-] | 9.5 nM |  | 23 nM | 2.5 nM |  |  | 
O=C(CC(CCN1C(=O)c2ccncc2C1=O)C(=O)O)c1ccc(-c2ccc(Cl)cc2)cc1 (stereo not drawn) [Example 417, 2H-Pyrrolo[3,4-c]pyridine-2-butanoic acid, α-[2-(4'-chloro[1,1'-biphenyl]-4-yl)-2-oxoethyl]-1,3-dihydro-1,3-dioxo-] | 32 nM |  | 3.7 nM | 12 nM |  |  | 
O=C(CC(CCN1C(=O)c2cccc3c(Br)ccc(c23)C1=O)C(=O)O)c1ccc(-c2ccc(Cl)cc2)cc1 (stereo not shown) [Example 418] | 305 nM |  | 420 nM | 89 nM |  |  | 
O=C(CC(CCN1C(=O)c2cc3c(cc2C1=O)OCO3)C(=O)O)c1ccc(-c2ccc(Cl)cc2)cc1 (stereo not drawn) [Example 419, 6H-1,3-Dioxolo[4,5-.function.]isoindole-6-butanoic acid, α-[2-(4'-chloro[1,1'-biphenyl]-4-yl)-2-oxoethyl]-5,7-dihydro-5,7-dioxo-] | 6.7 nM |  | 31 nM | 0.85 nM |  |  | 
O=C(CC(CCN1C(=O)c2ccc(O)cc2C1=O)C(=O)O)c1ccc(-c2ccc(Cl)cc2)cc1 (stereo not drawn) [Example 420, 2H-Isoindole-2-butanoic acid, α-[2-(4'chloro[1,1'-biphenyl]-4-yl)-2-oxoethyl]-1,3-dihydro-5-hydroxy-1,3-dioxo-] | 14 nM |  | 5.1 nM | 1.7 nM |  |  | 
O=C(CC(CCN1C(=O)c2cccc(O)c2C1=O)C(=O)O)c1ccc(-c2ccc(Cl)cc2)cc1 (stereo not drawn) [Example 421, 2H-Isoindole-2-butanoic acid, α-[2-(4'chloro[1,1'-biphenyl]-4-yl)-2-oxoethyl]-1,3-dihydro-4-hydroxy-1,3-dioxo-] | 12 nM |  | 0.75 nM | 1.7 nM |  |  | 
COc1ccc2c(c1)C(=O)N(CCC(CC(=O)c1ccc(-c3ccc(Cl)cc3)cc1)C(=O)O)C2=O (stereo not drawn) [Example 422, 2H-Isoindole-2-butanoic acid, α-[2-(4'chloro[1,1'-biphenyl]-4-yl)-2-oxoethyl]-1,3-dihydro-5-methoxy-1,3-dioxo-] | 8.4 nM |  | 14 nM | 1.6 nM |  |  | 
COc1cccc2c1C(=O)N(CCC(CC(=O)c1ccc(-c3ccc(Cl)cc3)cc1)C(=O)O)C2=O (stereo not drawn) [Example 423, 2H-Isoindole-2-butanoic acid, α-[2-(4'chloro[1,1'-biphenyl]-4-yl)-2-oxoethyl]-1,3-dihydro-4-methoxy-1,3-dioxo-] | 19 nM |  | 15 nM | 6.1 nM |  |  | 
CC(=O)Oc1ccc2c(c1)C(=O)N(CCC(CC(=O)c1ccc(-c3ccc(Cl)cc3)cc1)C(=O)O)C2=O (stereo not drawn) [Example 425, 2H-Isoindole-2-butanoic acid, 5-(acetyloxy)-α-[2-(4'-chloro[1,1'-biphenyl]-4-7l)2-oxoetyl]-1,3-dihydro-1,3-dioxo-] | 3.8 nM |  | 14 nM | 1.2 nM |  |  | 
O=C(CC(CCSc1ccccc1)C(=O)O)c1ccc(-c2ccc(Cl)cc2)cc1 (stereo not drawn) [Example 426, [1,1'-Biphenyl]-4-butanoic acid, 4'-chloro-γ-oxo-α-[2-(phenylthio)ethyl]-] | 161 nM |  | 35 nM | 417 nM |  |  | 
COc1ccc(CSCCC(CC(=O)c2ccc(-c3ccc(Cl)cc3)cc2)C(=O)O)cc1 (stereo not drawn) [Example 427, [1,1'-Biphenyl]-4-butanoic acid, 4'-chloro-α-[2-[[(4-methoxyphenyl)methyl]thio]ethyl]-γ-oxo-] | 189 nM |  | 42 nM | 362 nM |  |  | 
O=C(CC(CC[S+]([O-])c1ccccc1)C(=O)O)c1ccc(-c2ccc(Cl)cc2)cc1 (stereo not drawn) [Example 428, [1,1'-Biphenyl]-4-butanoic acid, 4'-chloro-γ-oxo-α-[2-(phenylsulfinyl)ethyl]-] | 53 nM |  | 16 nM | 119 nM |  |  | 
CCOc1ccc(-c2ccc(C(=O)CC(CCN3C(=O)c4cc5ccccc5cc4C3=O)C(=O)O)cc2)cc1 (stereo not drawn) [Example 429, 2H-Benz[.function.]isoindole-2-butanoic acid, α-[2-(4'-ethoxy[1,1'-biphenyl]-4-yl)-2-oxoethyl]-1,3-dihydro-1,3-dioxo-] | 23 nM |  | 23 nM | 1.6 nM |  |  | 
CC(=O)NC(CC(=O)c1ccc(-c2ccc(Cl)cc2)cc1)C(=O)O (stereo not drawn) [Example 430, [1,1'-Biphenyl]-4-butanoic acid, α-(acetylamino)-4'-chloro-γ-oxo-] |  |  | 419 nM |  | 28% | 37% | 
O=C(CC(CCCCN1C(=O)c2ccccc2C1=O)C(=O)O)c1ccc(-c2ccc(Cl)cc2)cc1 (stereo not drawn) [Example 431, 2H-Isoindole-2-hexanoic acid, α[2-(4'-chloro[1,1'-biphenyl]-4-yl)-2-oxoethyl]-1,3-dihydro-1,3-dioxo-] | 38 nM |  | 16 nM | 50 nM |  |  | 
COC(=O)c1cccc(SCC(CC(=O)c2ccc(-c3ccc(Cl)cc3)cc2)C(=O)O)c1 (stereo not drawn) [Example 432, [1,1'-Biphenyl]-4-butanoic acid, 4'-chloro-α-[[[3-(methoxycarbonyl)phenyl]thio]methyl]-γ-oxo-] | 1600 nM |  | 236 nM | > 1250 nM |  |  | 
Cc1cccc(C)c1SCC(CC(=O)c1ccc(-c2ccc(Cl)cc2)cc1)C(=O)O (stereo not drawn) [Example 433, [1,1'-Biphenyl]-4-butanoic acid, 4'-chloro-α-[[(2,6-dimethylphenyl)thio]methyl]-γ-oxo-] | 103 nM |  | 6.2 nM | 130 nM |  |  | 
COC(=O)c1cc(F)ccc1SCC(CC(=O)c1ccc(-c2ccc(Cl)cc2)cc1)C(=O)O (stereo not drawn) [Example 434, [1,1'-Biphenyl]-4-butanoic acid, 4'-chloro-α-[[[4-fluoro-2-(methoxycarbonyl)phenyl]thio]methyl]-γ-oxo-] | 254 nM |  | 61 nM | 1140 nM |  |  | 
CCN(CC)C(=O)c1cccc(SCC(CC(=O)c2ccc(-c3ccc(Cl)cc3)cc2)C(=O)O)c1 (stereo not drawn) [Example 435, [1,1'-Biphenyl]-4-butanoic acid, 4'-chloro-α-[[[3-[(diethylamino)carbonyl]phenyl]thio]methyl]-γ-oxo-] | 39 nM |  | 8.1 nM | 107 nM |  |  | 
CN(C)C(=O)c1ccccc1SCC(CC(=O)c1ccc(-c2ccc(Cl)cc2)cc1)C(=O)O (stereo not drawn) [Example 436, [1,1'-Biphenyl]-4-butanoic acid, 4'-chloro-α-[[[2-[(dimethylamino)carbony]phenyl]thio]methyl]-γ-oxo-] | 158 nM |  | 286 nM | 519 nM |  |  | 
CN(C)C(=O)c1cccc(SCC(CC(=O)c2ccc(-c3ccc(Cl)cc3)cc2)C(=O)O)c1 (stereo not drawn) [Example 437, [1,1'-Biphenyl]-4-butanoic acid, 4'-chloro-α-[[[3-[(dimethylamino)carbonyl]phenyl]thio]methyl]-γ-oxo-] | 50 nM |  | 15 nM | 366 nM |  |  | 
O=C(O)C1=CCCC1C(=O)c1ccc(-c2ccc(Cl)cc2)cc1 (stereo not shown) [Example 439, 1-Cyclopentene-1-carboxylic acid, 5-[(4'-chloro[1,1'-biphenyl]-4-yl)carbonyl]-] |  |  |  |  | 0% | 3% | 24%
CCCCCOc1ccc(-c2ccc(C(=O)C3CCC=C3C(=O)O)cc2)cc1 (stereo not shown) [Example 442, 1-Cyclopentene-1-carboxylic acid, 5-[[4'-(pentyloxy)[1,1'-biphenyl]-4-yl]carbonyl]-] | 2760 nM |  | 962 nM |  |  | 40% | 
CCCCCCOc1ccc(-c2ccc(C(=O)C3CCC=C3C(=O)O)cc2)cc1 (stereo not shown) [Example 443, 1-Cyclopentene-1-carboxylic acid, 5-[[4'-(hexyloxy)[1,1'-biphenyl]-4-yl]carbonyl]-] |  |  | 4610 nM |  | 20% | 16% | 
O=C(CC(CSc1ccccc1)C(=O)O)c1ccc(-c2ccc(O)cc2)cc1 (stereo not drawn) [Example 444, [1,1'-Biphenyl]-4-butanoic acid, 4'-hydroxy-γ-oxo-α-[(phenylthio)methyl]-] | < 5000 nM |  | 43 nM | < 5000 nM |  |  | 
